Experiment [1] relates to E. coli O157:H7. Type of experiment: cell-based, Escherichia coli. Conditions: screening-stage peptides tested at 1, 6, 12 and 25 μg/mL. In short, it runs like this:
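Tandem-repeat aggregation-prone-region peptides from DMSO stocks were tested for growth inhibition of E. coli O157:H7 at 1, 6, 12 and 25 μg/mL.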

Experiment [2] deals with Staphylococcus epidermidis 12228. The experiment is classed as cell-based. The protocol: (§1) Gram negative bacterial strains were cultivated in Luria-Bertani (LB) broth (Difco) and gram positive bacteria strains were grown in a rich medium, brain heart infusion (BHI) broth (Difco, Sparks, MD) at 37° C. Whenever required, growth media were supplemented with appropriate antibiotic to the medium or plates. Escherichia coli DH5α was used for cloning and plasmid amplification. […] Bacterial CFU counting was done on blood agar plates (BD Biosciences). Species identification and antibiograms for all clinical isolates were performed using MALDI-TOF and VITEK® 2 automated system (bioMérieux).
(§2) The MICs of active peptides were determined via the Broth microdilution assay according to the EUCAST guideline, which were performed in 96-well polystyrene flat-bottom microtiter plates (BD Biosciences). Briefly, a single colony was inoculated into 5 mL LB medium and grown to the end-exponential growth phase in a shaking incubator at 37° C. Cultures were subsequently diluted to an OD600 of 0.002 ([…]) in fresh LB medium. 100 μL of LB medium with different concentration of peptides ranging from 100 μg/mL to 1 μg/mL were serially diluted to the sterile 96-well plate (at least 3 wells in each plate). Afterward, 100 μL of the diluted bacteria were pipetted into 96-well plates containing different concentration of peptides. In each plate, the grown bacteria with maximum concentration of carrier and medium were considered as positive and negative controls, respectively. Thereafter, 96-well plates was statically incubated overnight at 37° C. to allow bacterial growth. A multipurpose UV/VIS plate reader at OD590 nm, 1 s shaking measured the absorbance of the growth bacteria using a Perkin Elmer spectrophotometer (1420 Multilabel Counter Victor 3).

Experiment [3] deals with Enterobacter cloacae LMG2783T. The experiment is classed as cell-based. Here is the method:
as §1, §2

The subject of experiment [4] is Neisseria. Type of experiment: cell-based. The protocol:
as §1, §2

The test system of experiment [5] is Klebsiella pneumoniae (ATCC 1388). The experiment is classed as cell-based. The protocol: as §1, §2
The test system of experiment [6] is Pseudomonas aeruginosa. The experiment is classed as cell-based. The protocol: as §1, §2
Experiment [7] relates to Acinetobacter baumanii. The experiment is classed as cell-based. The protocol:
as §1, §2

Experiment [8] concerns Proteus mirabilis. The experiment is classed as cell-based. Here is the method: as §1, §2
The subject of experiment [9] is Staphylococcus aureus MRSA326. Type of experiment: cell-based. The protocol: as §1, §2
Experiment [10] relates to Acinetobacter radioresistens. Type of experiment: cell-based. Here is the method:
as §1, §2

Experiment [11] has as its system E. coli K-12 BW25113 strain (KEIO collection). Type of experiment: cell-based, Escherichia coli. Here is the method:
as §2

Experiment [12] deals with E. coli O157. The experiment is classed as cell-based, Escherichia coli. The conditions noted are these: E. coli 0157 (Table 2). The protocol:
as §2

Converted amounts (≈) assume the structure as drawn. Like-named read-outs stand apart in the source and are kept apart here. Residues, ends and D or L forms follow the SMILES beside them.

Regarding `CC(C)C[C@H](NC(=O)CNC(=O)[C@H](CCCNC(=N)N)NC(=O)[C@@H]1CCCN1C(=O)[C@H](CCCNC(=N)N)NC(=O)[C@H](CCCNC(=N)N)NC(=O)[C@@H](NC(=O)[C@H](CC(C)C)NC(=O)[C@H](C)NC(=O)[C@H](CC(C)C)NC(=O)CNC(=O)[C@H](CC(C)C)NC(=O)CNC(=O)[C@@H](N)CCCNC(=N)N)C(C)C)C(=O)NCC(=O)N[C@@H](CC(C)C)C(=O)N[C@@H](C)C(=O)N[C@@H](CC(C)C)C(=O)N[C@H](C(=O)N[C@@H](CCCNC(=N)N)C(=O)N[C@@H](CCCNC(=N)N)C(=O)O)C(C)C` [Peptide P2] (H-RGLGLALVRRPRGLGLALVRR-OH), the “E. coli O157 (apparent MIC in screen)” value in experiment [1] came out at 6 µg/mL. Further, the MIC in experiment [2] was determined as 50 µg/mL (≈ 21.7 µM); in experiment [3] it was 50 µg/mL (≈ 21.7 µM); in experiment [4], 50 µg/mL (≈ 21.7 µM); in experiment [5] it was 50 µg/mL (≈ 21.7 µM); in experiment [6] it was 200 µg/mL (≈ 87 µM); in experiment [7], 6 µg/mL (≈ 2.61 µM). In addition, the MIC in experiment [8] turned out to be 50 µg/mL (≈ 21.7 µM); in experiment [9], 200 µg/mL (≈ 87 µM); in [10] it was 5 µg/mL (≈ 2.17 µM); in experiment [11] (KEIO WT) it was 12 µg/mL (≈ 5.22 µM); in experiment [11] (Δ Clp A), 12 µg/mL (≈ 5.22 µM); in [11] (Δ Clp B), 12 µg/mL (≈ 5.22 µM). The MIC came to 12 µg/mL (≈ 5.22 µM) in experiment [11] (Δ Clp P); 12 µg/mL (≈ 5.22 µM) in experiment [11] (Δ Clp S); 12 µg/mL (≈ 5.22 µM) in experiment [11] (Δ Clp X); 12 µg/mL (≈ 5.22 µM) in experiment [11] (Δ Dan J); 6 µg/mL (≈ 2.61 µM) in [11] (Δ Dan K); 12 µg/mL (≈ 5.22 µM) in experiment [11] (Δ gro L). Further, the MIC was determined as 12 µg/mL (≈ 5.22 µM) in [11] (Δ htp G) and 6 µg/mL (≈ 2.61 µM) in experiment [12].

These data come from patent US11872262B2, “Means and methods for treating bacterial infections” (VIB VZW, priority 2017, dated 2024).
